Measured values reported in ChEMBL document CHEMBL1149708, “Novel sulfonamides having dual dopamine D2 and D3 receptor affinity show in vivo antipsychotic efficacy with beneficial cognitive and EPS profile” (Bioorg Med Chem Lett, 2007).
The source made the active and inactive calls. The rule behind the calls is not given here.

Columns and labels:
D(3) dopamine receptor = D(3) dopamine receptor (Rattus norvegicus, UniProt P19020); assay: Displacement of [3H]spiperone from rat dopamine D3 receptor expressed in Sf9 cells
Sequence of D(3) dopamine receptor (P19020 whole entry): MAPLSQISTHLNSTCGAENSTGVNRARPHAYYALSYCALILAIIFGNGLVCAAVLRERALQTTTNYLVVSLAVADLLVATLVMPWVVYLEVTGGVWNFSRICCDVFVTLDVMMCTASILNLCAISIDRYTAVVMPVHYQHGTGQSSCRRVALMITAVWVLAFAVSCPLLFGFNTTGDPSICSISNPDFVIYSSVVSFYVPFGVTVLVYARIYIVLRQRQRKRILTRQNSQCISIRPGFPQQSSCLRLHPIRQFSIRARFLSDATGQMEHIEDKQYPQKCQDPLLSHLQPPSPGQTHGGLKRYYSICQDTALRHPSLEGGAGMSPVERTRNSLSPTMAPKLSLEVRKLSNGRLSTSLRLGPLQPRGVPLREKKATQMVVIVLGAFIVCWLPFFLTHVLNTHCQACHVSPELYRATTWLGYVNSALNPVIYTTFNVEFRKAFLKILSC

D(2) dopamine receptor = D(2) dopamine receptor (Rattus norvegicus, UniProt P61169); assay: Displacement of [3H]spiperone from dopamine D2 receptor in rat striatal membranes; format: cell membranes, Membrane
Sequence of D(2) dopamine receptor (P61169 whole entry): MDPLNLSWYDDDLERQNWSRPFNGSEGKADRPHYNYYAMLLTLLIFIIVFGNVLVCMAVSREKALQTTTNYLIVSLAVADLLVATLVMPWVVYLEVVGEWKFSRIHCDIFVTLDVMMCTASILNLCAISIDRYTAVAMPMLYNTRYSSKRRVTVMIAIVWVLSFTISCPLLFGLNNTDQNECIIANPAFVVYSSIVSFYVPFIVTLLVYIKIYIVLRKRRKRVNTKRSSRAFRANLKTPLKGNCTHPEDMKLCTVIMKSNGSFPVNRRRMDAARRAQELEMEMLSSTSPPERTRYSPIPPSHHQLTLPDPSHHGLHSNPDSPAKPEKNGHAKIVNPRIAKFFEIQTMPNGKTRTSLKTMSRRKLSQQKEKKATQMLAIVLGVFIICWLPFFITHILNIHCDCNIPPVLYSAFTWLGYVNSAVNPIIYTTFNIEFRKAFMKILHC

Rattus norvegicus [1] = assay: Antipsychotic activity in orally dosed Wistar rat assessed as inhibition of conditioned avoidance response after 1 hr; format: functional; conditions: po
Rattus norvegicus [2] = assay: Catalepsy in orally dosed Wistar rat after 30 mins; format: functional
[3] = Cmax in orally dosed rat brain; format: ADME, organism-based; parameters: route oral; conditions: po
[4] = Bioavailability in rat at 10 mg/kg; format: ADME, organism-based; conditions: in vivo
[5] = molecular target: D(3) dopamine receptor (Homo sapiens) (UniProt P35462); assay: Antagonistic activity at human D3 receptor expressed in CHO cells by [35S]GTP-gamma-S binding assay; format: functional, cell-based
Sequence of D(3) dopamine receptor (Homo sapiens) (P35462 whole entry): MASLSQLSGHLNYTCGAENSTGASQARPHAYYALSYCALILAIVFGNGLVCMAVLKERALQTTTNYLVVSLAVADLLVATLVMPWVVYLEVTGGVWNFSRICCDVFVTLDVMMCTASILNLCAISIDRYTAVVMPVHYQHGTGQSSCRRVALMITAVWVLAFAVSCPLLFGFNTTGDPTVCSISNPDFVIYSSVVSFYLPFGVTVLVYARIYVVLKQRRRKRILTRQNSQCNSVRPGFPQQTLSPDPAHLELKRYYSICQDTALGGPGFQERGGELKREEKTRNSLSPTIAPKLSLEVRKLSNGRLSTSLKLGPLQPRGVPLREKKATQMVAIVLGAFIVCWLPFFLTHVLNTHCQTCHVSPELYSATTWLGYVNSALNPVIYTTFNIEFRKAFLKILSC

[6] = Tmax in orally dosed rat brain; format: ADME, organism-based; conditions: po
Mus musculus = assay: Antipsychotic activity in orally dosed CD1 mice assessed as inhibition of […] induced climbing behavior; conditions: CD1, po
[7] = molecular target: D(2) dopamine receptor (Homo sapiens) (UniProt P14416); assay: Antagonistic activity at human D2 expressed in CHO cells by [35S]GTP-gamma-S binding assay; format: functional, cell-based
Sequence of D(2) dopamine receptor (Homo sapiens) (P14416 whole entry): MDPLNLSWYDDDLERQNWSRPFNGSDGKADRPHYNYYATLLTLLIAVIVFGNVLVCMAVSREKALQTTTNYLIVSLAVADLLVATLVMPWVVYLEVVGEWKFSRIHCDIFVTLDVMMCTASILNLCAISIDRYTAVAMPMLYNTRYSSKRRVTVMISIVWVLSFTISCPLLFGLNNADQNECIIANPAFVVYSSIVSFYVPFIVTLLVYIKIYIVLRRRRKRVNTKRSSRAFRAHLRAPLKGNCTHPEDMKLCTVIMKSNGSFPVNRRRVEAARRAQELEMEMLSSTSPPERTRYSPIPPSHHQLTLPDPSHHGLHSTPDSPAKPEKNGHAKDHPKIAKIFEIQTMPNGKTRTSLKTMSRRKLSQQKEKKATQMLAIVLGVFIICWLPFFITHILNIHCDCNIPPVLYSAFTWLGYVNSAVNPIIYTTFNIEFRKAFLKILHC

| Compound | IC50 (D(3) dopamine receptor) [nM] | IC50 (D(2) dopamine receptor) [nM] | other results |
| --- | --- | --- | --- |
| COc1ccc(S(=O)(=O)N[C@H]2CC[C@H](CCN3CCN(c4ccc(Br)cc4OC)CC3)CC2)cc1 | 0.5 | 28 |  |
| Cc1ccc(S(=O)(=O)N[C@H]2CC[C@H](CCN3CCN(c4cc(C#N)cc(C(F)(F)F)c4)CC3)CC2)cn1 | 4.2 | 39 |  |
| CC(=O)Nc1ccc(S(=O)(=O)N[C@H]2CC[C@H](CCN3CCN(c4cc(C#N)cc(C(F)(F)F)c4)CC3)CC2)cc1 | 0.9 | 39 |  |
| Cc1cc2c(s1)Nc1ccccc1N=C2N1CCN(C)CC1 [OLANZAPINE] |  |  | ED50 (Rattus norvegicus [1]): 3.9 mg/kg |
| O=C1COc2ccc(S(=O)(=O)N[C@H]3CC[C@H](CCN4CCC(Oc5cccc(C(F)(F)F)c5)CC4)CC3)cc2N1 | 1 | 5.3 |  |
| O=S(=O)(N[C@H]1CC[C@H](CCN2CCC(Nc3cc(Cl)ccc3Cl)CC2)CC1)c1ccc(F)cc1 | 2 | 9 |  |
| O=C1CCc2ccc(OCCCCN3CCN(c4cccc(Cl)c4Cl)CC3)cc2N1 [ARIPIPRAZOLE] |  |  | ED50 (Rattus norvegicus [1]): 17.9 mg/kg |
| O=S(=O)(N[C@H]1CC[C@H](CCN2CCC(Cc3cccc(C(F)(F)F)c3)CC2)CC1)c1ccc(Cl)cc1 | 3.8 | 41 |  |
| O=S(=O)(N[C@H]1CC[C@H](CCN2CCC(Cc3cccc(C(F)(F)F)c3)CC2)CC1)c1cc2ccccc2s1 | 2.6 | 91 |  |
| N#Cc1cc(N2CCN(CC[C@H]3CC[C@H](NS(=O)(=O)c4cccc(C#N)c4)CC3)CC2)cc(C(F)(F)F)c1 | 5.8 | 23 |  |
| N#Cc1cc(N2CCN(CC[C@H]3CC[C@H](NS(=O)(=O)c4ccc5c(c4)CCC(=O)N5)CC3)CC2)cc(C(F)(F)F)c1 | 0.7 | 30 |  |
| COc1ccc(S(=O)(=O)N[C@H]2CC[C@H](CCN3CCN(c4cccc(C#N)c4)CC3)CC2)cc1OC | 0.7 | 57 |  |
| O=S(=O)(N[C@H]1CC[C@H](CCN2CCN(c3cccc(Cl)c3Cl)CC2)CC1)c1cccnc1 | 0.2 | 4 |  |
| N#Cc1cc(N2CCN(CC[C@H]3CC[C@H](NS(=O)(=O)c4cccnc4)CC3)CC2)cc(C(F)(F)F)c1 | 0.4 | 24 | MED (Rattus norvegicus [2]): >200 mg/kg; Cmax [3]: 921 ng/mL; ED50 (Rattus norvegicus [1]): 11.6 mg/kg; bioavailability [4]: 55%; Activity [5]: Active; Tmax [6]: 1 h; ED50 (Mus musculus): 22 mg/kg; Activity [7]: Active |
| N#Cc1cc(N2CCN(CC[C@H]3CC[C@H](NS(=O)(=O)c4ccc(Br)cc4)CC3)CC2)cc(C(F)(F)F)c1 | 3.3 | 26 |  |
| O=S(=O)(N[C@H]1CC[C@H](CCN2CCC(Cc3cccc(C(F)(F)F)c3)CC2)CC1)c1ccc(-n2cccn2)cc1 | 0.5 | 4.3 |  |
